Test results taken from BindingDB's records for doi:10.1021/jm00091a006 (University of Arizona, 1992).

Test: Compound was evaluated for its inhibitory potency against Opioid receptor delta 1 of Guinea pig ileum
`C[C@H](c1ccc(O)cc1)[C@H](N)C(=O)N[C@H]1C(=O)NCC(=O)N[C@@H](Cc2ccccc2)C(=O)N[C@@H](C(=O)O)C(C)(C)SSC1(C)C` showed an IC50 of 3.4 µM. In the case of `C[C@@H](c1ccc(O)cc1)[C@H](N)C(=O)N[C@H]1C(=O)NCC(=O)N[C@@H](Cc2ccccc2)C(=O)N[C@@H](C(=O)O)C(C)(C)SSC1(C)C`, the IC50 is reported as 7.18 µM. In the case of `Cc1cc(O)ccc1C[C@@H](N)C(=O)N[C@H]1C(=O)NCC(=O)N[C@@H](Cc2ccccc2)C(=O)N[C@@H](C(=O)O)C(C)(C)SSC1(C)C`, the IC50 is reported as 6.61 µM. In the case of `C[C@H](c1ccc(O)cc1)[C@@H](N)C(=O)N[C@H]1C(=O)NCC(=O)N[C@@H](Cc2ccccc2)C(=O)N[C@@H](C(=O)O)C(C)(C)SSC1(C)C`, the IC50 is reported as over 100 µM.
